Key:
[1] = test system: purified PLA2, from the diamond back cotton mouth snake (A. piscivorus piscivorus); test: in vivo PLA2 murine paw edema assay; design: species or system A. piscivorus piscivorus PLA2 in CD-1 mice
Experimental: The ability of the compounds of the invention to inhibit paw edema induced by the exogenous administration of PLA2 is measured in the in vivo PLA2 murine paw edema assay.
Non-fasted, male CD-1 mice (8 weeks old; 31-36 grams) are placed in plastic boxes in groups of six. The right hind paw volume is measured using mercury plethysmography (zero time). Compounds are dosed orally (0.5 mL of 0.5% Tween-80) 1 or 3 hours prior to PLA2 injection or intravenously (0.2 mL in 0.3% dimethylsulfoxide/saline) 3 minutes prior to PLA2 injection. A solution of purified PLA2, from the diamond back cotton mouth snake (A. piscivorus piscivorus) is prepared in saline at a concentration of 6 μg/mL. Fifty (50) μL (0.3 μg) of this PLA2 solution is injected subcutaneously into the right hind paw with a plastic 1 mL plastic syringe (27 gauge, 1" needle). Paw volume of the injected paw is measured again at 10 minutes, 30 minutes and 60 minutes after PLA2 injection. Animals are euthanized with CO2 at the completion of the study.
The paw edema is calculated by subtracting the zero time volume from the volume recorded at each time period. Mean paw edema for each treatment group is then calculated and expressed as (μL±S.E.). Drug effects are expressed as a percent change from control (vehicle) values. Statistical significance is determined by a one-way analysis of variance with LSD comparison to control (p<0.05). ED50 's are determined using […].

AA-induced ear edema = test: arachidonic acid (AA)-induced murine ear edema assay; format: in vivo, mouse (Swiss Webster); conditions: for ED50: Mus musculus, 1 h, oral
TPA-induced ear edema = test: 12-o-tetradecanoylphorbol acetate (TPA)-induced murine ear edema assay; format: in vivo, mouse (Swiss Webster); conditions: oral, TPA-induced
Experimental: The ability of the compounds of the invention to inhibit inflammatory responses is examined in the in vivo arachidonic acid (AA)/12-o-tetradecanoylphorbol acetate (TPA)-induced murine ear edema assay.
Swiss Webster female mice (Buckshire), approximately 8 weeks old are placed into plastic boxes in groups of six. Eight groups of mice receive AA topically on the right ear, and another 8 groups receive TPA topically on the right ear. AA and TPA are dissolved in acetone at concentrations of 100 mg/ml and 100 μg/ml respectively. The phlogistics are applied to the right ear by the means of an automatic pipet. Volumes of 10 μl are applied to the inner and outer surfaces of the ear. Each mouse receives either 2 mg/ear AA or 2 μg/ear TPA. The left ear (control) receives acetone delivered in the same manner. Topical and subcutaneous dosing regimens are as follows 1) drugs are given 30 minutes prior to AA treatment and 2) drugs are given 30 minutes after treatment with TPA.
Measurements are taken with Oditest calipers, 0-10 mm with 0.01 graduations. The right and left ears are measured after 1 hr AA-induced inflammation and 4 hours after TPA-induced inflammation.
The difference between right and left ear thickness is calculated and the significance is determined by a one way analysis of variance with Dunnett's comparisons to control (P=0.05). Drug effects are expressed as a percent change from control values: [formula]

human platelet PLA2 = target: T1, human platelet PLA2 (Homo sapiens, UniProt P14555); test: in vitro isolated phospholipase A2 assay, human platelet PLA2; format: biochemical; conditions: at 10 μM; + values given without explanation; read-out: % Inhibition HP (human platelet)
T1 construct: platelet acid extract PLA2; from tissue; host or cells: human platelets, semipurified acid extract
T1 sequence (P14555 21-144): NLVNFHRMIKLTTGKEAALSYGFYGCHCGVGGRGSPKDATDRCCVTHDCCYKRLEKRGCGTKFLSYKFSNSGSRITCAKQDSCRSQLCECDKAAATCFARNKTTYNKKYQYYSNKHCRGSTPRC
How it was run: (§1)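 PLA2 from semipurified human platelet acid extract or purified human synovial fluid, preincubated 30 min at room temperature with compound. ³H-arachidonate-labelled E. coli substrate then added in Tris-HCl pH 7.5, with enzyme giving about 12% hydrolysis. Reaction ran 10 min at 37° C; released arachidonic acid recovered on NH2 columns and measured by β-counting.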

[2] = target: T2, human synovial fluid PLA2 (Homo sapiens, UniProt P14555); test: in vitro isolated phospholipase A2 assay, human synovial fluid PLA2; format: biochemical; conditions: for IC50: Table IV, read-out: IC50 HSF (human synovial fluid); for inhibition at 10 µM: + values given without explanation, read-out: % Inhibition HSF (human synovial fluid)
T2 construct: Purified human synovial fluid; from tissue; host or cells: human synovial fluid
T2 sequence (P14555 21-144): T1 sequence (P14555 21-144)
How it was run: as §1

carrageenan paw edema = test: rat carrageenan paw edema assay; format: in vivo, rat (Sprague-Dawley); conditions: 50 mg/kg peroral
Experimental: The compounds of the invention are further tested in the rat carrageenan paw edema assay to determine their ability to inhibit the acute inflammatory response.
140-180 g Male Sprague-Dawley rats, in groups of 6 animals are injected subcutaneously in the right paw with 0.1 mL of 1% carrageenan at zero time. Mercury plethysmographic readings (mL) of the paw are made at zero time and 3 hours later. Test compounds are suspended or dissolved in 0.5% methylcellulose and given perorally 1 hour prior to carrageenan administration.
The increase in paw volume (edema in mL) produced by the carrageenan is measured. Paw edema is calculated (3 hour volume minus zero time volume), and percent inhibition of edema is determined. Unpaired Student's t-test is used to determine statistical significance.

[3] = test system: lipoxygenase (LTB4 or 5HETE synthesis); test: inhibition of LTB4 and 5-HETE synthesis by rat glycogen-elicited polymorphonuclear leukocytes; format: cell-based, rat (female Wistar); conditions: Leukocyte; at 10 μM; rat PMN; + with * denotes potentiation; read-out: % Inhibition LTB4
From the text: This is especially true with respect to 5,12-diHETE, which is also denoted as LTB4 [see Ford-Hitchinson, J. Roy. Soc. Med., 74, 831 (1981)]. Compounds which inhibit the PLA2 -mediated release of arachidonic acid thereby effectively prevent the oxidation of arachidonic acid to the various leukotriene products via the lipoxygenase cascade. Accordingly, the specificity of action of PLA2 inhibitors can be determined by the activity of test compounds in this assay, which measures the ability of compounds to inhibit the synthesis of LTB4 and 5-HETE by rat glycogen-elicited polymorphonuclear leukocytes (PMN) in the presence of exogenous substrate.
(§2) Rat polymorphonuclear leukocytes (PMNs) are obtained from female Wistar rats (150-200 g) which receive an injection of 6% glycogen (10 ml i.p.). Rats are sacrificed 18-24 hours post injection by CO2 asphyxiation and the elicited cells are harvested by peritoneal lavage using physiological saline (0.9% NaCl). The exudate is centrifuged at 400 xg for 10 minutes. The supernatant fluid is discarded and the cell pellet is resuspended to a concentration of 2.0×10^7 cells/mL in HBSS containing Ca^++ and Mg^++ and 10 μM L-cysteine.
(§3) To 1 mL aliquots of cell suspension, test drugs or vehicle are added, then preincubated at 37° C. for 10 minutes. A23187 (1 μM), [^3 H]-AA (3.0 μCi/mL) and unlabeled AA (1 μM) are then added and the samples are further incubated for 10 minutes. The reaction is terminated by centrifugation and pelleting cells. Supernatants are then analyzed by HPLC analysis on a 15 cm×4.6 mm ID supelcosil LC-18 (Supelco)(3M) column, using a two solvent system at a flow rate of 1.4 mL total flow as follows:
Injections: 140 μL of each supernatant is injected directly onto column and ^3 H arachidonic acid metabolites are monitored using an on-line radioactivity detector (Ramona, IN/US, Fairfield, N.J.).
Co-chromatography with standard [^3 H] leukotriene B4 (LTB4) in medium of stimulated PMN exposed to drug is compared to that found in medium of stimulated cells exposed to no drug, generating percent inhibition.
Results are expressed as percent inhibition at a given compound dose or as an IC50 value.

[4] = test system: cyclooxygenase (PGE2 or TxB2 synthesis); test: inhibition of synthesis of cyclooxygenase products PGE2 and TxB2 by rat polymorphonuclear leukocytes; format: cell-based, rat (female Wistar); conditions: Leukocyte; at 10 μM; rat PMN; + with * denotes potentiation; read-out: % Inhibition TxB2
Experimental: as §2, §3
In this assay, the procedure of Example 58 is carried out as described. However, in order to determine cyclooxygenase activity, the samples are co-chromatographed with authentic reference [^3 H]-TxB2 or [^3 H]-PGE2.
The results are calculated as in Example 58 and presented below: […]

[5] = test system: lipoxygenase and/or cyclooxygenase pathways of arachidonic acid metabolism; test: in vivo murine zymosan peritonitis assay; design: species or system mouse (CD-1); conditions: for ED50 LTC4: p.o.
Experimental: The compounds of the invention are evaluated for their ability to inhibit the lipoxygenase and/or cyclooxygenase pathways of arachidonic acid metabolism in the in vivo murine zymosan peritonitis assay.
Male CD-1 mice (8 weeks old) are placed in plastic boxes in groups of six. Animals are injected with 1 mL i.p. of either 1% zymosan in pyrogen free 0.9% saline or saline (unstimulated control). Compounds are dosed orally 1 hour prior to zymosan injection. Twenty minutes after zymosan injection, the mice are asphyxiated by CO2 inhalation and the peritoneal cavity is lavaged with 2 mL ice cold Hanks Balanced Salt Solution (HBSS) without CaCl2, MgSO4. 7H2 O and MgCl2.6H2 O. Peritoneal lavage fluid from each mouse is removed by syringe and placed in 5 mL plastic test tubes put on ice and volume is noted. Preparation of samples for evaluation by ELISA is as follows: Samples are centrifuged at 800 xg for 15 minutes; 1 mL of the supernatant is added to 8 mL ice cold methanol and kept at -70° C. overnight to precipitate protein; and samples are then centrifuged at 800 xg for 15 minutes, followed by a drying procedure in a Savant speed vac concentrator. The samples are reconstituted with 1 mL ice cold ELISA buffer and stored at -70° C. until assayed. The assay for eicosanoids (LTC4 and 6-keto-PGF1α) is performed according to conventional ELISA procedures.
Compounds to be tested orally are suspended in 0.5% Tween 80. Compounds to be tested intraperitoneally are suspended in 0.5% methylcellulose in 0.9% saline.
The total metabolite level in lavage fluid/mouse is calculated and the significance is determined by a one-way analysis of variance with LSD comparisons to control (p≤0.05). Drug effects are expressed as a percent change from control values.

Which “ED50 at +10 min.” value ([1]; p.o., at +10 min) does the source give for `NC1=NN(c2cccc(C(F)(F)F)c2)CC1` [BW 755c, reference compound] here?
Its value is 50 mg/kg.

And the ED50 (AA-induced ear edema)?
Its ED50 is 65 mg/kg.

What about the ED50 (TPA-induced ear edema; Mus musculus, 4 h, read-out: Oral ED50 (TPA)) of the same molecule?
Its ED50 is 88 mg/kg.

What does the source list for `COc1ccc(/C=C/C(=O)C2=C(O)COC2=O)cc1` [Example 6, (E)-4-Hydroxy-3-(3-(4-methoxyphenyl)-1-oxo-2-propenyl)-2 (5H)-furanone]?
inhibition at 10 µM (human platelet PLA2): 0%; IC50 [2]: 8700 nM; inhibition at 10 µM [2]: 59%; % Inhibition (carrageenan paw edema): 31%

For `O=C(/C=C/c1ccc(Cl)cc1)C1=C(O)COC1=O` [Example 7, (E)-4-Hydroxy-3-(3-(4-chlorophenyl)-1-oxo-2-propenyl)-2(5H)-furanone], which inhibition at 10 µM [3] is on record?
The inhibition at 10 µM was 13%.

And the inhibition at 10 µM [4]?
The inhibition at 10 µM was 18%.

What about the inhibition at 10 µM (human platelet PLA2) of the same molecule?
The inhibition at 10 µM was 0%.

What about the IC50 [2] of the same molecule?
Its IC50 is 1800 nM.

What about the inhibition at 10 µM [2] of the same molecule?
The inhibition at 10 µM was 98%.

And the “% Change in Edema 10 min” value ([1]; 10 mg/kg i.v.)?
Its value is -19%.

What about the “% Change in Edema 30 min” value ([1]; 10 mg/kg i.v.) of the same molecule?
The value was “+39%”.

What about the “% Change in Edema 60 min” value ([1]; 10 mg/kg i.v.) of the same molecule?
Its value is “+15%”.

And the “% Change in Edema 10 min” value ([1]; 100 mg/kg p.o.)?
The value was -24%.

And the “% Change in Edema 30 min” value ([1]; 100 mg/kg p.o.)?
Its value is -4%.

What about the “% Change in Edema 60 min” value ([1]; 100 mg/kg p.o.) of the same molecule?
The value was -9%.

What about the “% Inhibition” value (carrageenan paw edema) of the same molecule?
Its value is 47%.

With `O=C(/C=C/c1cccc([N+](=O)[O-])c1)C1=C(O)COC1=O` [Example 12, (E)-4-Hydroxy-3-(3-(3-nitrophenyl)-1-oxo-2-propenyl)-2 (5H)-furanone] as the molecule, how does the inhibition at 10 µM [3] read?
The inhibition at 10 µM was 5%.

What about the inhibition at 10 µM [4] of the same molecule?
Its inhibition at 10 µM is 9%.

What about the inhibition at 10 µM (human platelet PLA2) of the same molecule?
Its inhibition at 10 µM is 11%.

And the IC50 [2]?
Its IC50 is 2000 nM.

What about the inhibition at 10 µM [2] of the same molecule?
The inhibition at 10 µM was 82%.

And the “% Change in Edema 10 min” value ([1]; 10 mg/kg i.v.)?
The value was -11%.

What about the “% Change in Edema 30 min” value ([1]; 10 mg/kg i.v.) of the same molecule?
The value was -19%.

And the “% Change in Edema 60 min” value ([1]; 10 mg/kg i.v.)?
The value was “+24%”.

What about the “% Change in Edema 10 min” value ([1]; 100 mg/kg p.o.) of the same molecule?
Its value is -27%.

And the “% Change in Edema 30 min” value ([1]; 100 mg/kg p.o.)?
The value was -33%.

What about the “% Change in Edema 60 min” value ([1]; 100 mg/kg p.o.) of the same molecule?
The value was -2%.

What about the “% Inhibition” value (carrageenan paw edema) of the same molecule?
Its value is 30%.

`CC(C)Cc1ccc(C(C)C(=O)O)cc1` (stereo not shown) [Ibuprofen] was tested. Which “ED50 LTC4” value [5] did it give?
Its value is “Not Active”.

Which ED50 (AA-induced ear edema) does the source give for `O=C1CCN(c2ccccc2)N1` [Phenidone] here?
Its ED50 is 85 mg/kg.

Which results are given for `COc1ccc2c(c1)c(CC(=O)O)c(C)n2C(=O)c1ccc(Cl)cc1` [indomethacin]?
% Inhibition LTC4 ([5]; 10 mg/kg p.o.): +25%; ED50 LTC4 [5]: Not Active; Oral ED50 (AA) (AA-induced ear edema): inactive at 10; Oral ED50 (TPA) (TPA-induced ear edema): inactive at 10

Reference: patent US5242945A, “Tetronic and thiotetronic acid derivatives as phospholipase A2 inhibitors” (American Home Products Corporation, priority 1991, dated 1993)
